Test results published in patent publication US10898542B2, “Topical compositions comprising OB-fold variants” (AFFILOGIC, priority 2013, dated 2021).
Values belong to the compound of their own block, whether it stands above or below them.

Tests used:
[1] = Franz cell diffusion test, penetration through human skin ex vivo; format: in vitro ADME; conditions: human skin 1 mm, 100 μl at 5 mg/ml, 24 h, PBS pH 7.4 receiver, 2 cm^2
Excerpt: The test used is the Franz cell diffusion test.
Franz cells are used to determine, ex vivo, the skin penetration of exogenous substances, and to actually measure the speed of passage through the various layers of the skin barrier of the molecules constituting the active ingredient deposited at the surface of the skin.
A solution containing the molecule to be studied is deposited in a “donor” department of the device. The molecule then diffuses through a membrane (in the case in point the skin) and is collected in a “receiver” compartment.
In practice, after having removed the hypodermal layer (adipose tissue), the skin fragment is deposited on a diffusion cell, called a Franz cell. The deep face of the dermis is in contact with a receiver solution which is supposed to replace the interstitial fluid of the skin. A solution containing the molecule studied is deposited on top of the skin. […]
The nanofitin concentration was measured on each of the samples taken, using the BioLayer Interferometry technology which makes it possible to measure the interaction between two proteins. In the case in point, the nanofitin content is measured by the recognition of a poly-Histidine tag which is coupled to said nanofitins beforehand.

[2] = system: skin inflammation similar to psoriasis caused by imiquimod (Aldara); experiment: Imiquimod-induced psoriasis-type ear inflammation, topical treatment, PASI score; format: in vivo, Balb/c mice; conditions: cream on right ear; mice licked their ears, systemic effect after ingestion very probable
Procedure: In order to verify the skin penetration of nanofitins and the preservation of their properties, in particular their property of neutralizing the receptor-ligand relationship, inflammation models of psoriasis type were used and the reduction in inflammation (PASI score) after topical administration of anti-inflammatory nanofitins directly to the skin was measured.
These nanofitins target two different cytokines involved in psoriasiform inflammation, but with different localizations, from the basal layers of the dermis just into the epidermis (Nestle et al., Nature Reviews Immunology 9, 679-691, 2009). The nanofitins in question neutralize the binding of the targeted cytokines with their receptor. In order to inhibit the action of these cytokines during inflammation of psoriasis type, it is necessary to reach the layers where they are located, either systemically as therapeutic antibodies do, or topically via the skin. The measurement of an anti-inflammatory effect by topical administration of nanofitins thus attests to penetration of the nanofitins through the skin and to an associated therapeutic efficacy.
The local application of imiquimod (Aldara) to the internal face of the ears of mice causes a skin inflammation similar to psoriasis (Van der Fits et al., J Immunol. 2009 May 1; 182(9):5836-45, Flutter et al., Eur J Immunol. 2013 December; 43(12):3138-46). […]

[3] = Penetration through rabbit cornea in reaction chambers; format: in vitro ADME; conditions: male, Fauve de Bourgogne, 37° C., sampling 0 h, 2 h and 4 h, 0.5 cm^2, read-out: apparent permeability
Procedure: Three male rabbits (Fauve de Bourgogne) were used.
The principle is the same as for the skin permeability.
3 ml of formulation containing each nanofitin were placed on the donor side of the reaction chambers and 3 ml of PBS were placed on the receiver side. Freshly taken corneal tissues were placed between the two half-chambers.
The temperature was maintained at 37° C. throughout the study and the oxygenation was provided by continuous perfusion of carbogen (95% O2, 5% CO2). The exchange surface area was 0.5 cm^2.
At each following sampling period: 0 h, 2 h and 4 h, 500 μl of liquid were taken from the receiver side and replaced with PBS. • 100 μl of liquid were taken from the donor side and were not replaced.
At the end of the sampling period, the 0.5 cm^2 of corneas were removed from the reaction chamber and scraped with a scalpel. 1 ml of PBS was added to the samples, which were homogenized.

Compound: Cn1c(=O)c2c(ncn2C)n(C)c1=O [caffeine]
percentage found on the receiver side (skin permeability) [1]: ~10%

Compound: C[C@H]1C[C@H]2[C@@H]3CCC4=CC(=O)C=C[C@]4(C)[C@@]3(F)[C@@H](O)C[C@]2(C)[C@@]1(O)C(=O)CCl [clobetazole]
inflammation on the nontreated left ear [2]: reduction in the inflammation on the nontreated left ear

Papp at 4 h [3]: 11 ×10⁻⁶ cm/s
Compound: CCn1cc(C(=O)O)c(=O)c2cc(F)c(N3CCNCC3)cc21 [norfloxacin]
